The target in experiment [1] is human orexin-2 receptor (Homo sapiens (Human), UniProt O43614). Kind of experiment: Intracellular calcium measurements (FLIPR), antagonism of orexin-A response. Type of experiment: cell-based. Particulars: CHO cells expressing human orexin-2 receptor, 3 nM orexin-A, geometric mean if determined several times, read-out: IC50 OX2. As to the method:
(§1) Antagonistic activities on both orexin receptors have been measured for each example compound using the following procedure:
(§2) In Vitro Assay: Intracellular Calcium Measurements:
(§3) Chinese hamster ovary (CHO) cells expressing the human orexin-1 receptor and the human orexin-2 receptor, respectively, are grown in culture medium (Ham F-12 with L-Glutamine) containing 300 μg/mL G418, 100 U/mL penicillin, 100 μg/mL streptomycin and 10% heat inactivated fetal calf serum (FCS). The cells are seeded at 20,000 cells/well into 384-well black clear bottom sterile plates (Greiner). The seeded plates are incubated overnight at 37° C. in 5% CO2. Human orexin-A as an agonist is prepared as 1 mM stock solution in MeOH:water (1:1), diluted in HBSS containing 0.1% bovine serum albumin (BSA), NaHCO3: 0.375 g/L and 20 mM HEPES for use in the assay at a final concentration of 3 nM.
(§4) Antagonists are prepared as 10 mM stock solution in DMSO, then diluted in 384-well plates using DMSO followed by a transfer of the dilutions into in HBSS containing 0.1% bovine serum albumin (BSA), NaHCO3: 0.375 g/L and 20 mM HEPES. On the day of the assay, 50 μL of staining buffer (HBSS containing 1% FCS, 20 mM HEPES, NaHCO3: 0.375 g/L, 5 mM probenecid (Sigma) and 3 μM of the fluorescent calcium indicator fluo-4 AM (1 mM stock solution in DMSO, containing 10% pluronic) is added to each well. The 384-well cell-plates are incubated for 50 min at 37° C. in 5% CO2 followed by equilibration at rt for 30 min before measurement.
(§5) Within the Fluorescent Imaging Plate Reader (FLIPR Tetra, Molecular Devices), antagonists are added to the plate in a volume of 10 μL/well, incubated for 120 min and finally 10 μL/well of agonist is added. Fluorescence is measured for each well at 1 second intervals, and the height of each fluorescence peak is compared to the height of the fluorescence peak induced by 3 nM orexin-A with vehicle in place of antagonist. The IC50 value (the concentration of compound needed to inhibit 50% of the agonistic response) is determined and may be normalized using the obtained IC50 value of an on-plate reference compound. Optimized conditions were achieved by adjustment of pipetting speed and cell splitting regime. The calculated IC50 values may fluctuate depending on the daily cellular assay performance. Fluctuations of this kind are known to those skilled in the art. In the case where IC50 values have been determined several times for the same compound, the geometric mean has been given.
A general note: Calcium assays in cells follow changes in intracellular calcium, usually with a dye or a luminescent sensor.

The target of experiment [2] is human orexin-1 receptor (Homo sapiens (Human), UniProt O43613). The description is as above. It counts as cell-based. Particulars: CHO cells expressing human orexin-1 receptor, 3 nM orexin-A, geometric mean if determined several times, read-out: IC50 OX1. How it is done: as §1, §2, §3, §4, §5
human orexin-1 receptor, sequence (O43613 whole entry): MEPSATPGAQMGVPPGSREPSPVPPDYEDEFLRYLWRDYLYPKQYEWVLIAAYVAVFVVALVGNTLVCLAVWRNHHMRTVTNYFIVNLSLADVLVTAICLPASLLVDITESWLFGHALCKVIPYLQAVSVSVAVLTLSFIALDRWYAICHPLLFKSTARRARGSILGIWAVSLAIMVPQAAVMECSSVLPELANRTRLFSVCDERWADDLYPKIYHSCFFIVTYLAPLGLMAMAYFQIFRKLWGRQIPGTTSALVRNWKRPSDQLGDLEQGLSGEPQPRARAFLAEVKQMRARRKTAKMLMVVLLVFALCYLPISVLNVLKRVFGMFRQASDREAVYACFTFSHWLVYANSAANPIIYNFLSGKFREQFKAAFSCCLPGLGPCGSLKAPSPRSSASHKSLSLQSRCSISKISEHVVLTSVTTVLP

Each structure is given as a SMILES string.

human orexin-2 receptor, sequence (O43614 whole entry): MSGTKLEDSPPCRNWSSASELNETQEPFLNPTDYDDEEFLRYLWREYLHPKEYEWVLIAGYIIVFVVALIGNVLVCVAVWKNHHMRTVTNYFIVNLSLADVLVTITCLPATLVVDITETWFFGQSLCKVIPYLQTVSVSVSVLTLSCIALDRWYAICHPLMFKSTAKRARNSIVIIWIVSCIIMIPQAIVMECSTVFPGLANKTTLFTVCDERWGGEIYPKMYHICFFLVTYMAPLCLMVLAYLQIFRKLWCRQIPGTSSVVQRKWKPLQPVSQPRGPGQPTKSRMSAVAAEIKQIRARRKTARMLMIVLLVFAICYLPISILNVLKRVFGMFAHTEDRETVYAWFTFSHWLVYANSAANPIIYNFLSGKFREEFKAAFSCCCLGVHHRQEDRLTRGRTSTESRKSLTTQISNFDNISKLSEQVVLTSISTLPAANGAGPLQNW

In the case of `Cc1cc(C(=O)N2CC[C@H]2c2nc(-c3cccc(F)c3C)no2)c(-n2nccn2)cc1C` [Example 21, (4,5-Dimethyl-2-[1,2,3]triazol-2-yl-phenyl)-{(S)-2-[3-(3-fluoro-2-methyl-phenyl)-[1,2,4]oxadiazol-5-yl]-azetidin-1-yl}-methanone], the IC50 in experiment [1] came to 4 nM; in experiment [2] it was 173 nM.

`Cc1ccc(C(=O)N2CC[C@H]2c2nc(-c3cccc(F)c3C)no2)c(-n2nccn2)c1` [Example 22, {(S)-2-[3-(3-Fluoro-2-methyl-phenyl)-[1,2,4]oxadiazol-5-yl]-azetidin-1-yl}-(4-methyl-2-[1,2,3]triazol-2-yl-phenyl)-methanone]: the IC50 in experiment [1] was determined as 23 nM; in experiment [2], 821 nM.

As for `COc1cc(C(=O)N2CC[C@H]2c2nc(-c3ccccc3OC(F)(F)F)no2)c(-n2nccn2)cc1F` [Example 23, (4-Fluoro-5-methoxy-2-[1,2,3]triazol-2-yl-phenyl)-{(S)-2-[3-(2-trifluoromethoxy-phenyl)-[1,2,4]oxadiazol-5-yl]-azetidin-1-yl}-methanone], the values for the IC50 in experiment [1] and in experiment [2] were 39 nM and 1420 nM, respectively.

Turning to `COc1cc(C(=O)N2CC[C@H]2c2nc(-c3cccc(Cl)c3C)no2)c(-n2nccn2)cc1F` [Example 24, {(S)-2-[3-(3-Chloro-2-methyl-phenyl)-[1,2,4]oxadiazol-5-yl]-azetidin-1-yl}-(4-fluoro-5-methoxy-2-[1,2,3]triazol-2-yl-phenyl)-methanone], the concentration for half-maximal inhibition (IC50) in experiment [1] was determined as 25 nM; in experiment [2], 963 nM.

As for `COc1cc(C(=O)N2CC[C@H]2c2nc(-c3cccc(F)c3C)no2)c(-n2nccn2)cc1F` [Example 25, (4-Fluoro-5-methoxy-2-[1,2,3]triazol-2-yl-phenyl)-{(S)-2-[3-(3-fluoro-2-methyl-phenyl)-[1,2,4]oxadiazol-5-yl]-azetidin-1-yl}-methanone], the IC50 came to 27 nM in experiment [1] and 1750 nM in experiment [2].

For the compound `COc1cc(C(=O)N2CC[C@H]2c2nc(-c3cccc(F)c3OC)no2)c(-n2nccn2)cc1F` [Example 26, {(S)-2-[3-(3-Fluoro-2-methoxy-phenyl)-[1,2,4]oxadiazol-5-yl]-azetidin-1-yl}-(4-fluoro-5-methoxy-2-[1,2,3]triazol-2-yl-phenyl)-methanone], the half-maximal inhibitory concentration (IC50) came out at 26 nM in experiment [1] and 2080 nM in experiment [2].

For `COc1cc(C(=O)N2CC[C@H]2c2nc(-c3ccccc3OC(F)(F)F)no2)c(-n2nccn2)cc1C` [Example 27, (5-Methoxy-4-methyl-2-[1,2,3]triazol-2-yl-phenyl)-{(S)-2-[3-(2-trifluoromethoxy-phenyl)-[1,2,4]oxadiazol-5-yl]-azetidin-1-yl}-methanone], the IC50 stood at 6 nM in experiment [1] and 220 nM in experiment [2].

As to `COc1cc(C(=O)N2CC[C@H]2c2nc(-c3cccc(Cl)c3C)no2)c(-n2nccn2)cc1C` [Example 28, {(S)-2-[3-(3-Chloro-2-methyl-phenyl)-[1,2,4]oxadiazol-5-yl]-azetidin-1-yl}-(5-methoxy-4-methyl-2-[1,2,3]triazol-2-yl-phenyl)-methanone], the IC50 came to 2 nM in experiment [1] and 397 nM in experiment [2].

For `COc1cc(C(=O)N2CC[C@H]2c2nc(-c3cccc(F)c3C)no2)c(-n2nccn2)cc1C` [Example 29, {(S)-2-[3-(3-Fluoro-2-methyl-phenyl)-[1,2,4]oxadiazol-5-yl]-azetidin-1-yl}-(5-methoxy-4-methyl-2-[1,2,3]triazol-2-yl-phenyl)-methanone], the IC50 is 4 nM in experiment [1] and 671 nM in experiment [2].

On to `CCOc1ncccc1-c1noc([C@@H]2CCN2C(=O)c2cc(C)ccc2-n2nccn2)n1` [Example 30, {(S)-2-[3-(2-Ethoxy-pyridin-3-yl)-[1,2,4]oxadiazol-5-yl]-azetidin-1-yl}-(5-methyl-2-[1,2,3]triazol-2-yl-phenyl)-methanone], for which the IC50 amounted to 10 nM in experiment [1] and 295 nM in experiment [2].

As to `CCOc1ncccc1-c1noc([C@@H]2CCN2C(=O)c2cc(C)c(C)cc2-n2nccn2)n1` [Example 31, (4,5-Dimethyl-2-[1,2,3]triazol-2-yl-phenyl)-{(S)-2-[3-(2-ethoxy-pyridin-3-yl)-[1,2,4]oxadiazol-5-yl]-azetidin-1-yl}-methanone], the values for the IC50 in experiment [1] and in experiment [2] were 3 nM and 68 nM, respectively.

Take `CCOc1ncccc1-c1noc([C@@H]2CCN2C(=O)c2ccc(C)cc2-n2nccn2)n1` [Example 32, {(S)-2-[3-(2-Ethoxy-pyridin-3-yl)-[1,2,4]oxadiazol-5-yl]-azetidin-1-yl}-(4-methyl-2-[1,2,3]triazol-2-yl-phenyl)-methanone]: the IC50 in experiment [1] is 100 nM; in experiment [2], 819 nM.

In the case of `CCOc1ncccc1-c1noc([C@@H]2CCN2C(=O)c2cc(OC)c(F)cc2-n2nccn2)n1` [Example 33, {(S)-2-[3-(2-Ethoxy-pyridin-3-yl)-[1,2,4]oxadiazol-5-yl]-azetidin-1-yl}-(4-fluoro-5-methoxy-2-[1,2,3]triazol-2-yl-phenyl)-methanone], the values for the IC50 in experiment [1] and in experiment [2] were 27 nM and 1500 nM, respectively.

Consider `CCOc1ncccc1-c1noc([C@@H]2CCN2C(=O)c2cc(OC)c(C)cc2-n2nccn2)n1` [Example 34, {(S)-2-[3-(2-Ethoxy-pyridin-3-yl)-[1,2,4]oxadiazol-5-yl]-azetidin-1-yl}-(5-methoxy-4-methyl-2-[1,2,3]triazol-2-yl-phenyl)-methanone], for which the figures for the IC50 in experiment [1] and in experiment [2] were 5 nM and 238 nM, respectively.

For the compound `Cc1ccc(-n2nccn2)c(C(=O)N2CC[C@H]2c2nc(-c3cccnc3OC3CCC3)no2)c1` [Example 35, {(S)-2-[3-(2-Cyclobutoxy-pyridin-3-yl)-[1,2,4]oxadiazol-5-yl]-azetidin-1-yl}-(5-methyl-2-[1,2,3]triazol-2-yl-phenyl)-methanone], the IC50 stood at 71 nM in experiment [1] and 292 nM in experiment [2].

Turning to `Cc1ccc(-n2nccn2)c(C(=O)N2CC[C@H]2c2nc(-c3ccccc3)no2)c1` [Example 36, (5-Methyl-2-[1,2,3]triazol-2-yl-phenyl)-[(S)-2-(3-phenyl-[1,2,4]oxadiazol-5-yl)-azetidin-1-yl]-methanone], the IC50 in experiment [1] stood at 287 nM; in experiment [2] it was 3820 nM.

Take `Cc1nc(C(=O)N2CC[C@H]2c2nc(-c3ccccc3OC(F)(F)F)no2)c(-c2ccccc2F)s1` [Example 37, [5-(2-Fluoro-phenyl)-2-methyl-thiazol-4-yl]-{(S)-2-[3-(2-trifluoromethoxy-phenyl)-[1,2,4]oxadiazol-5-yl]-azetidin-1-yl}-methanone]: the IC50 in experiment [1] was 59 nM; in experiment [2] it was 458 nM.

For `Cc1cccc(-c2sc(C)nc2C(=O)N2CC[C@H]2c2nc(-c3ccccc3OC(F)(F)F)no2)c1` [Example 38, (2-Methyl-5-m-tolyl-thiazol-4-yl)-{(S)-2-[3-(2-trifluoromethoxy-phenyl)-[1,2,4]oxadiazol-5-yl]-azetidin-1-yl}-methanone], the IC50 in experiment [1] is 119 nM; in experiment [2], 322 nM.

In the case of `Cc1ccc(-c2ccccc2)c(C(=O)N2CC[C@H]2c2nc(-c3ccccc3OC(F)(F)F)no2)c1` [Example 39, (4-Methyl-biphenyl-2-yl)-{(S)-2-[3-(2-trifluoromethoxy-phenyl)-[1,2,4]oxadiazol-5-yl]-azetidin-1-yl}-methanone], the IC50 in experiment [1] worked out at 4 nM; in experiment [2], 75 nM.

For `Cc1nc(C(=O)N2CC[C@H]2c2nc(-c3ccccc3OC(F)(F)F)no2)c(-c2ccccc2)s1` [Example 40, (2-Methyl-5-phenyl-thiazol-4-yl)-{(S)-2-[3-(2-trifluoromethoxy-phenyl)-[1,2,4]oxadiazol-5-yl]-azetidin-1-yl}-methanone], the concentration for half-maximal inhibition (IC50) was found to be 41 nM in experiment [1] and 221 nM in experiment [2].

For the compound `CN(C)c1nc(C(=O)N2CC[C@H]2c2nc(-c3ccccc3OC(F)(F)F)no2)c(-c2ccccc2)s1` [Example 41, (2-Dimethylamino-5-phenyl-thiazol-4-yl)-{(S)-2-[3-(2-trifluoromethoxy-phenyl)-[1,2,4]oxadiazol-5-yl]-azetidin-1-yl}-methanone], the IC50 came to 10 nM in experiment [1] and 43 nM in experiment [2].

For the compound `O=C(c1ncsc1-c1ccccc1)N1CC[C@H]1c1nc(-c2ccccc2OC(F)(F)F)no1` [Example 42, (5-Phenyl-thiazol-4-yl)-{(S)-2-[3-(2-trifluoromethoxy-phenyl)-[1,2,4]oxadiazol-5-yl]-azetidin-1-yl}-methanone], the IC50 turned out to be 266 nM in experiment [1] and 400 nM in experiment [2].

The term IC50 denotes the concentration that inhibits the measured activity by half.

The values are drawn from patent US9403813B2, “Azetidine amide derivatives as orexin receptor antagonists” (ACTELION PHARMACEUTICALS LTD, priority 2013, dated 2016).
